Several values for one entry are separate records, joined by “and”; a condition that tells them apart may be missing. Equal entries are not always repeated. Toxic doses and inconclusive results are not listed.
System: L1210 leukemia ip in BDF1 mice, survival T/C
Assay: NCI In Vivo Anticancer Drug Screen. Data for tumor model L1210 Leukemia (intraperitoneal) in B6D2F1 (BDF1) mice
Conditions: endpoint: mean survival time, higher = longer survival
How it was run: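 Survival endpoint. Drug-treated group vs vehicle group, expressed as T divided by C. Tumor passaged by transplantation.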

[1] = dose: 100.0 mg/kg/injection, schedule: Q04DX003 (ip), vehicle: saline with Tween-80
[2] = dose: 200.0 mg/kg/injection, schedule: Q04DX003 (ip), vehicle: saline with Tween-80
[3] = dose: 25.0 mg/kg/injection, schedule: Q01DX009 (ip), vehicle: saline
[4] = dose: 50.0 mg/kg/injection, schedule: Q01DX009 (ip), vehicle: saline
[5] = dose: 100.0 mg/kg/injection, schedule: Q01DX009 (ip), vehicle: saline
[6] = dose: 100.0 mg/kg/injection, schedule: Q04DX003 (ip), vehicle: saline
[7] = dose: 200.0 mg/kg/injection, schedule: Q04DX003 (ip), vehicle: saline
[8] = dose: 400.0 mg/kg/injection, schedule: Q04DX003 (ip), vehicle: saline
[9] = dose: 100.0 mg/kg/injection, schedule: Q01DX001 (ip), vehicle: other
[10] = dose: 200.0 mg/kg/injection, schedule: Q01DX001 (ip), vehicle: other
[11] = dose: 400.0 mg/kg/injection, schedule: Q04DX003 (ip), vehicle: saline with Tween-80
[12] = dose: 100.0 mg/kg/injection, schedule: Q01DX009 (ip), vehicle: saline with Tween-80
[13] = dose: 200.0 mg/kg/injection, schedule: Q01DX009 (ip), vehicle: saline with Tween-80
[14] = dose: 100.0 mg/kg/injection, schedule: Q01DX009 (ip), vehicle: Klucel (hydroxypropylcellulose) (HPC)
[15] = dose: 200.0 mg/kg/injection, schedule: Q01DX009 (ip), vehicle: Klucel (hydroxypropylcellulose) (HPC)
[16] = dose: 400.0 mg/kg/injection, schedule: Q01DX009 (ip), vehicle: Klucel (hydroxypropylcellulose) (HPC)

Structure (SMILES): CCC[CH2][Pb]([Cl])([CH2]CCC)[CH2]CCC
- T/C (dose: 6.25 mg/kg/injection, schedule: Q01DX009 (ip), vehicle: saline with Tween-80): 90 % of control

Structure (SMILES): COc1cc2c(cc1OC)C1Cc3ccc(OC)c(OC)c3CN1CC2 (configuration not stated)
- T/C (dose: 50.0 mg/kg/injection, schedule: Q04DX003 (ip), vehicle: saline with Tween-80): 86 % of control
- T/C (dose: 100.0 mg/kg/injection, schedule: Q04DX002 (ip), vehicle: Klucel (hydroxypropylcellulose) (HPC)): 87 % of control
- T/C [1]: 116 % of control
- T/C (dose: 200.0 mg/kg/injection, schedule: Q04DX002 (ip), vehicle: Klucel (hydroxypropylcellulose) (HPC)): 103 % of control
- T/C [2]: 94 % of control

Structure (SMILES): CCS(=O)(=O)Nc1ccc(Nc2c3ccccc3nc3ccccc23)c(OC)c1
- T/C (dose: 2.5 mg/kg/injection, schedule: Q01DX009 (ip), vehicle: Klucel (hydroxypropylcellulose) (HPC)): 152 % of control
- T/C (dose: 5.0 mg/kg/injection, schedule: Q01DX009 (ip), vehicle: Klucel (hydroxypropylcellulose) (HPC)): 168 % of control
- T/C (dose: 5.0 mg/kg/injection, schedule: Q01DX009 (ip), vehicle: saline): 155 % of control
- T/C (dose: 10.0 mg/kg/injection, schedule: Q01DX009 (ip), vehicle: Klucel (hydroxypropylcellulose) (HPC)): 163 % of control
- T/C (dose: 10.0 mg/kg/injection, schedule: Q01DX009 (ip), vehicle: saline): 216 % of control
- T/C (dose: 20.0 mg/kg/injection, schedule: Q01DX009 (ip), vehicle: Klucel (hydroxypropylcellulose) (HPC)): 86 % of control

Structure (SMILES): CC(C)[As](=O)(O)O
- T/C [3]: 97 % of control
- T/C [4]: 90 % of control
- T/C [5]: 104 % of control and 106 % of control

Structure (SMILES): CN(C)C(c1ccccc1)C(O)c1ccccc1 (configuration not stated)
- T/C (dose: 75.0 mg/kg/injection, schedule: Q01DX001 (ip), vehicle: saline): 94 % of control and 98 % of control
- T/C (dose: 150.0 mg/kg/injection, schedule: Q01DX001 (ip), vehicle: saline): 97 % of control and 102 % of control
- T/C (dose: 300.0 mg/kg/injection, schedule: Q01DX001 (ip), vehicle: saline): 89 % of control and 96 % of control

Structure (SMILES): CCCCOC(=O)Nc1ccccc1
- T/C (dose: 100.0 mg/kg/injection, schedule: Q04DX003 (ip), vehicle: gum acacia): 101 % of control
- T/C (dose: 200.0 mg/kg/injection, schedule: Q04DX003 (ip), vehicle: gum acacia): 108 % of control
- T/C (dose: 400.0 mg/kg/injection, schedule: Q04DX003 (ip), vehicle: gum acacia): 109 % of control

Structure (SMILES): Cc1nc(SCc2ccc(Cl)cc2)[nH]c(=O)c1CC(C)O (configuration not stated)
- T/C [6]: 97 % of control
- T/C [7]: 89 % of control
- T/C [8]: 89 % of control

Structure (SMILES): CN(C)C(=O)NCc1cccnc1
- T/C (dose: 100.0 mg/kg/injection, schedule: Q04DX013 (ip), vehicle: saline): 100 % of control
- T/C (dose: 200.0 mg/kg/injection, schedule: Q04DX013 (ip), vehicle: saline): 94 % of control
- T/C (dose: 400.0 mg/kg/injection, schedule: Q04DX013 (ip), vehicle: saline): 101 % of control

Structure (SMILES): CN(CCC#N)C1=CCCC1
- T/C (dose: 100.0 mg/kg/injection, schedule: Q04DX003 (ip), vehicle: saline sonified): 100 % of control
- T/C (dose: 200.0 mg/kg/injection, schedule: Q04DX003 (ip), vehicle: saline sonified): 111 % of control
- T/C (dose: 400.0 mg/kg/injection, schedule: Q04DX003 (ip), vehicle: saline sonified): 96 % of control

Structure (SMILES): CCC(=O)OC1CCC2(C)C(=CCC3C2CCC2(C)C(C(C)CCCC(C)C)CCC32)C1 (configuration not stated)
- T/C [9]: 91 % of control
- T/C [10]: 91 % of control

Structure (SMILES): C(OC[C@H]1CC[C@@H](COCC2CO2)O1)C1CO1 (some centres not stated)
- T/C (dose: 100.0 mg/kg/injection, schedule: Q01DX001 (ip), vehicle: saline): 112 % of control
- T/C (dose: 108.0 mg/kg/injection, schedule: Q01DX007 (ip), vehicle: saline): 120 % of control
- T/C (dose: 178.0 mg/kg/injection, schedule: Q01DX001 (ip), vehicle: saline): 106 % of control and 110 % of control
- T/C (dose: 200.0 mg/kg/injection, schedule: Q01DX001 (ip), vehicle: saline): 109 % of control
- T/C (dose: 267.0 mg/kg/injection, schedule: Q01DX001 (ip), vehicle: saline): 114 % of control and 115 % of control
- T/C (dose: 400.0 mg/kg/injection, schedule: Q01DX001 (ip), vehicle: saline): 114 % of control
- T/C (dose: 600.0 mg/kg/injection, schedule: Q01DX001 (ip), vehicle: saline): 98 % of control

Structure (SMILES): Nc1nc(N)c(N=Nc2ccc(Cl)cc2)c(Cl)n1
- T/C (dose: 100.0 mg/kg/injection, schedule: Q01DX001 (ip), vehicle: carboxymethylcellulose (CMC)): 94 % of control
- T/C (dose: 200.0 mg/kg/injection, schedule: Q01DX001 (ip), vehicle: carboxymethylcellulose (CMC)): 97 % of control
- T/C (dose: 400.0 mg/kg/injection, schedule: Q01DX001 (ip), vehicle: carboxymethylcellulose (CMC)): 94 % of control

Structure (SMILES): O=C(OCCN1CCCCC1)C(c1ccccc1)C1(O)CCCC1 (configuration not stated)
- T/C [4]: 106 % of control
- T/C [5]: 116 % of control

Structure (SMILES): COc1cc(Br)c(CC2=[N+](C)CCc3cc(OC)c(OCc4ccccc4)cc32)cc1OC
- T/C [1]: 98 % of control
- T/C [2]: 101 % of control
- T/C [11]: 101 % of control

Structure (SMILES): CCN(CC)c1ccc(N=C2C=C(C(=O)Nc3cccc(Cl)c3)C(=O)c3ccccc32)c(C)c1
- T/C [9]: 92 % of control
- T/C [10]: 92 % of control
- T/C (dose: 400.0 mg/kg/injection, schedule: Q01DX001 (ip), vehicle: other): 96 % of control

Structure (SMILES): OCc1ccc(Cl)cc1Cl
- T/C (dose: 50.0 mg/kg/injection, schedule: Q01DX009 (ip), vehicle: saline with Tween-80): 107 % of control
- T/C [12]: 103 % of control
- T/C [1]: 100 % of control
- T/C [13]: 103 % of control
- T/C [2]: 105 % of control
- T/C [11]: 102 % of control

Structure (SMILES): Cc1ccc(N=Nc2ccc(N(C)C)cc2)cc1
- T/C [14]: 90 % of control
- T/C [15]: 92 % of control
- T/C [16]: 90 % of control

Structure (SMILES): Cc1cc(-c2ccc([N+](=O)[O-])cc2)cn1-c1ccccc1
- T/C (dose: 50.0 mg/kg/injection, schedule: Q04DX002 (ip), vehicle: saline with Tween-80): 97 % of control
- T/C (dose: 100.0 mg/kg/injection, schedule: Q04DX002 (ip), vehicle: saline with Tween-80): 97 % of control and 89 % of control
- T/C (dose: 200.0 mg/kg/injection, schedule: Q04DX002 (ip), vehicle: saline with Tween-80): 87 % of control
- T/C (dose: 400.0 mg/kg/injection, schedule: Q04DX002 (ip), vehicle: saline with Tween-80): 96 % of control

Structure (SMILES): O=C(Nc1cccc2ccccc12)c1ccc(Cl)cc1Cl
- T/C [14]: 103 % of control
- T/C [15]: 100 % of control
- T/C [16]: 96 % of control

Structure (SMILES): Cc1cnc(NCCCC(N)C(=O)O)nc1 (configuration not stated)
- T/C (dose: 100.0 mg/kg/injection, schedule: Q04DX002 (ip), vehicle: saline): 95 % of control
- T/C (dose: 200.0 mg/kg/injection, schedule: Q04DX002 (ip), vehicle: saline): 95 % of control

Structure (SMILES): COc1cc(/C=N/NC(=O)c2ccccc2NC(=O)c2ccccc2)ccc1O
- T/C [14]: 97 % of control
- T/C [15]: 95 % of control
- T/C [16]: 100 % of control

Structure (SMILES): Cn1nc(NC(=O)C(F)(F)F)c2nccnc21
- T/C [12]: 95 % of control
- T/C [1]: 100 % of control
- T/C [13]: 94 % of control
- T/C [2]: 101 % of control
- T/C [11]: 108 % of control

Structure (SMILES): O=S1(=O)CCNc2ccccc2O1
- T/C (dose: 50.0 mg/kg/injection, schedule: Q01DX001 (ip), vehicle: Klucel (hydroxypropylcellulose) (HPC)): 101 % of control
- T/C (dose: 100.0 mg/kg/injection, schedule: Q01DX001 (ip), vehicle: Klucel (hydroxypropylcellulose) (HPC)): 93 % of control
- T/C (dose: 200.0 mg/kg/injection, schedule: Q01DX001 (ip), vehicle: Klucel (hydroxypropylcellulose) (HPC)): 97 % of control
- T/C (dose: 400.0 mg/kg/injection, schedule: Q01DX001 (ip), vehicle: Klucel (hydroxypropylcellulose) (HPC)): 95 % of control

Structure (SMILES): CN(C)c1ccc(C(=O)/C=C/c2ccc([N+](=O)[O-])cc2)cc1
- T/C [14]: 87 % of control
- T/C [15]: 97 % of control
- T/C [16]: 86 % of control

Structure (SMILES): O=C(Nc1ccc(Cl)c(Cl)c1)Nc1c(Oc2ccc(Cl)c(Cl)c2)ccc(Cl)c1S(=O)(=O)O
- T/C (dose: 6.25 mg/kg/injection, schedule: Q01DX009 (ip), vehicle: saline): 94 % of control
- T/C (dose: 12.5 mg/kg/injection, schedule: Q01DX009 (ip), vehicle: saline): 93 % of control
- T/C [3]: 96 % of control

Structure (SMILES): c1ccc2c3c(ccc2c1)Sc1ccc2ccccc2c1N3
- T/C [5]: 102 % of control
- T/C [6]: 97 % of control
- T/C (dose: 200.0 mg/kg/injection, schedule: Q01DX009 (ip), vehicle: saline): 98 % of control
- T/C [7]: 111 % of control
- T/C (dose: 400.0 mg/kg/injection, schedule: Q01DX009 (ip), vehicle: saline): 93 % of control
- T/C [8]: 95 % of control
